Measurements from patent publication US20080299566A1, “Methylation of Gene Promoters as a Predictor of Effectiveness of Therapy” (priority 2006, published 2008).

Key:
ESCC cell line KYSE 110 = test: 5AzaC treatment of ESCC cell line KYSE 110; qMSP and real-time RT-PCR for Reprimo; type: cell-based; conditions: 1 μl of 5 mM 5AzaC per ml of cells every 24 hours for 6 days, harvested day 0, 2, 4, 6
Method: (§1) DNA methylation of Reprimo was determined by qMSP using the ABI 7700 Taqman system (Eads C. A. et al., (2001)). MSP distinguishes methylated alleles of a given gene based on DNA sequence alterations after bisulfite treatment of DNA. Bisulfite treatment converts unmethylated but not methylated cytosines to uracils. Subsequent PCR using primers and probe specific to the corresponding methylated DNA sequence is then performed. (Eads C. A. et al., (2001)).
(§2) The normalized MSP value (NMV) was calculated by dividing the ratio of the qMSP value for Reprimo to β-actin for each sample by the ratio of the qMSP value for Reprimo to, β-actin for Universal Methylated DNA (See Sato F. et al., Cancer Res., 62:6820-6822 (2002) and Shibata, D. M., et al., Cancer Res., 62:5637-5640 (2002)). Qualitative MSP status was determined by analyzing the normalized MSP value. A normalized MSP value of 0.05 was assigned as the cutoff point for classifying methylation status as qualitatively positive (≧0.05) or negative (<0.05). This cutoff point had been previously determined by ROC curve analysis (See Shibata, D. M., et al., (2002)).
(§3) This treatment protocol has been published previously (Shibata, D. M., et al., Cancer Res., 62:5637-5640 (2002)). […]

EAC cell line OE33 = test: 5AzaC treatment of EAC cell line OE33; qMSP and real-time RT-PCR for Reprimo; type: cell-based; conditions: 1 μl of 5 mM 5AzaC per ml of cells every 24 hours for 6 days, harvested day 0, 2, 4, 6
Method: as §1, §2, §3

Nc1ncn([C@H]2C[C@H](O)[C@@H](CO)O2)c(=O)n1 [5AzaC, 5-Aza-2′-Deoxycytidine]
Reprimo mRNA expression (ESCC cell line KYSE 110): increased Reprimo mRNA expression | Reprimo methylation (qMSP) (ESCC cell line KYSE 110): reduction in Reprimo methylation | Reprimo mRNA expression (EAC cell line OE33): increased Reprimo mRNA expression | Reprimo methylation (qMSP) (EAC cell line OE33): reduction in Reprimo methylation
